molecular target: T1, human GPR40 (Homo sapiens, UniProt O14842); experiment: Inositol Phosphate Turnover (IP1) Assay; format: cell-based; settings: HEK cells stably expressing human GPR40; 60 min incubation
T1 construct: expressed in transfected cells
Experimental: Human GPR40 stable cell-lines were generated in HEK cells. The expression plasmids were transfected using lipofectamine (Life Technologies) following manufacturer's instructions. Stable cell-lines were generated following drug selection and single cell cloning. The assay was performed in 384-well format. HEK cells stably expressing human GPR40 were plated at 7500 cells per well in growth medium (DMEM/10% fetal calf serum). Cell plates were then incubated 16 hours at 37 degrees in a 5% CO2 incubator. Measurement of Inositol Phosphate Turnover (IP1) was performed using the CisBio IP-One kit (Part number 62IPAPEB). After the 16 hour incubation, the growth media was removed by centrifugation using the BlueWasher (AusWasher GUI Ver. v1.0.1.8) Protocol #21-“Light Dry” and 10 ul of stimulation buffer (prepared as described in the kit) was added to each well. In a separate plate, compounds were diluted in DMSO (200-fold over the final concentration in the assay well) and 50 nl was acoustically transferred to the appropriate well in the assay cell plate. The plates were then incubated for 60 minutes at 37 degrees in a 5% CO2 incubator. 10 ul of detection buffer (also prepared as described in the IP-One kit) was added to each well and the plates were incubated at room temperature for 60 minutes in the dark. The plates were then read in a Perkin Elmer EnVision or equivalent reader able to measure FRET. Fluorescent ratio of emission at 665 and 620 nm was then converted to IP1 concentration by back calculating from an IP1 standard curve prepared at the time of the assay. Data were normalized to % activity using a reference compound and EC50s determined using a standard 4-parameter fit.

T1 sequence (O14842 whole entry): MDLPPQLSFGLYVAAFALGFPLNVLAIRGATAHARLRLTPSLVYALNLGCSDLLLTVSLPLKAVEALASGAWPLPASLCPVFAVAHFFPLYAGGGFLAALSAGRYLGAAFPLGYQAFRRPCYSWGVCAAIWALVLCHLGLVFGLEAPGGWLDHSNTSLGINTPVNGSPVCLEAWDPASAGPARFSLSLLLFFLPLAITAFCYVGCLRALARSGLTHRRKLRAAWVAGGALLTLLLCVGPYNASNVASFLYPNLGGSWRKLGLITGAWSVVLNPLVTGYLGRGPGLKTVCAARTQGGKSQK

Structure (SMILES) | EC50 [nM]
CCOc1cc(-c2ncc([C@@H]3CCc4ccc([C@H](C5CC5)[C@H](C)C(=O)O)c(F)c4O3)nc2C)c(F)cn1 [Example 12, (2S,3R)-3-cyclopropyl-3-((S)-2-(5-(2-ethoxy-5-fluoropyridin-4-yl)-6-methylpyrazin-2-yl)-8-fluorochroman-7-yl)-2-methylpropanoic Acid] | 4.3
COc1cc(-c2cnc([C@H]3C[C@H](OC)c4ccc([C@H](C5CC5)[C@H](C)C(=O)O)cc4O3)cn2)c(F)cn1 [Example 27, (2S,3R)-3-cyclopropyl-3-{(2R,4S)-2-[5-(5-fluoro-2-methoxypyridin-4-yl)pyrazin-2-yl]-4-methoxy-3,4-dihydro-2H-chromen-7-yl}-2-methylpropanoic Acid] | 1.7
COc1cc(-c2ncc(C3CCc4ccc([C@H](C5CC5)[C@H](C)C(=O)O)cc4O3)nc2C)c(Cl)cn1 (single isomer, unassigned) [Example 6] | 3.3
CCOc1cc(-c2ncc(C3CCc4ccc([C@H](C5CC5)[C@H](C)C(=O)O)cc4O3)nc2C)c(F)cn1 (single isomer, unassigned) [Example 4] | 6.9
COc1cc(-c2ncc(C3CCc4ccc([C@H](C5CC5)[C@H](C)C(=O)O)c(F)c4O3)nc2C)c(F)cn1 (single isomer, unassigned) [Example 16] | 6.6
CCc1nc([C@H]2CCc3ccc([C@H](C4CC4)[C@H](C)C(=O)O)cc3O2)cnc1-c1cc(OC)ncc1F [Example 23, (2S,3R)-3-cyclopropyl-3-((R)-2-(6-ethyl-5-(5-fluoro-2-methoxypyridin-4-yl)pyrazin-2-yl)chroman-7-yl)-2-methylpropanoic acid] | 6.5
COc1cc(-c2ncc(C3CCc4ccc([C@H](C5CC5)[C@H](C)C(=O)O)cc4O3)nc2C)c(Cl)cn1 (single isomer, unassigned) [Example 13] | 4.1
COc1cc(-c2cnc(C3CCc4ccc([C@H](C5CC5)[C@H](C)C(=O)O)cc4O3)c(C)n2)c(C)cn1 (single isomer, unassigned) [Example 25] | 8.1
COc1cc(-c2cnc(C3CCc4ccc([C@H](C5CC5)[C@H](C)C(=O)O)cc4O3)c(C)n2)c(C2CC2)cn1 (single isomer, unassigned) [Example 26] | 5.4
COc1cc(-c2cnc(C3CCc4ccc([C@H](C5CC5)[C@H](C)C(=O)O)c(F)c4O3)c(C)n2)c(F)cn1 (single isomer, unassigned) [Example 18] | 4.2
COc1cc(-c2ncc(C3CCc4ccc([C@H](C5CC5)[C@H](C)C(=O)O)cc4O3)nc2C)c(Cl)cn1 (single isomer, unassigned) [Example 14] | 13.8
COc1cc(-c2ncc(C3CCc4ccc([C@H](C5CC5)[C@H](C)C(=O)O)c(F)c4O3)nc2C)c(F)cn1 (single isomer, unassigned) [Example 15] | 3
CCc1nc([C@@H]2CCc3ccc([C@H](C4CC4)[C@H](C)C(=O)O)cc3O2)cnc1-c1cc(OC)ncc1F [Example 24, (2S,3R)-3-cyclopropyl-3-((S)-2-(6-ethyl-5-(5-fluoro-2-methoxypyridin-4-yl)pyrazin-2-yl)chroman-7-yl)-2-methylpropanoic Acid] | 2.3
CCOc1cc(-c2ncc(C3CCc4ccc([C@H](C5CC5)[C@H](C)C(=O)O)cc4O3)nc2C)c(F)cn1 (single isomer, unassigned) [Example 3] | 7.8
COc1cc(-c2ncc(C3CCc4ccc([C@H](C5CC5)[C@H](C)C(=O)O)cc4O3)nc2C)c(Cl)cn1 (single isomer, unassigned) [Example 5] | 11.2
CCOc1cc(-c2ncc([C@H]3CCc4ccc([C@H](C5CC5)[C@H](C)C(=O)O)c(F)c4O3)nc2C)c(F)cn1 [Example 11, (2S,3R)-3-cyclopropyl-3-((R)-2-(5-(2-ethoxy-5-fluoropyridin-4-yl)-6-methylpyrazin-2-yl)-8-fluorochroman-7-yl)-2-methylpropanoic acid] | 3.5

Now those with a lower EC50, led by results:

EC50 [nM] | Structure (SMILES)
0.7 | CCOc1cc(-c2cnc(C3CCc4ccc([C@H](C5CC5)[C@H](C)C(=O)O)cc4O3)c(C)n2)c(F)cn1 (single isomer, unassigned) [Example 9]
1 | Cc1nc(-c2cc(OCC(F)F)ncc2F)cnc1C1CCc2ccc([C@H](C3CC3)[C@H](C)C(=O)O)cc2O1 (single isomer, unassigned) [Example 8]
0.4 | CCOc1cc(-c2cnc(C3CCc4ccc([C@H](C5CC5)[C@H](C)C(=O)O)c(F)c4O3)c(C)n2)c(F)cn1 (single isomer, unassigned) [Example 20]
0.6 | COc1cc(-c2cnc([C@@H]3CCc4ccc([C@H](C5CC5)[C@H](C)C(=O)O)cc4O3)c(C)n2)c(Cl)cn1 (single isomer, unassigned) [Example 1]
1.1 | CCOc1cc(-c2cnc(C3CCc4ccc([C@H](C5CC5)[C@H](C)C(=O)O)c(F)c4O3)c(C)n2)c(F)cn1 (single isomer, unassigned) [Example 19]
0.9 | Cc1nc(-c2cc(OCC(F)F)ncc2F)cnc1C1CCc2ccc([C@H](C3CC3)[C@H](C)C(=O)O)cc2O1 (single isomer, unassigned) [Example 7]
0.3 | COc1cc(-c2cnc(C3CCc4ccc([C@H](C5CC5)[C@H](C)C(=O)O)c(F)c4O3)c(C)n2)c(Cl)cn1 (single isomer, unassigned) [Example 21]
1.3 | COc1cc(-c2cnc([C@H]3CCc4ccc([C@H](C5CC5)[C@H](C)C(=O)O)cc4O3)c(C)n2)c(Cl)cn1 (single isomer, unassigned) [Example 2]
1.6 | COc1cc(-c2cnc(C3CCc4ccc([C@H](C5CC5)[C@H](C)C(=O)O)c(F)c4O3)c(C)n2)c(Cl)cn1 (single isomer, unassigned) [Example 22]
0.3 | COc1cc(-c2cnc(C3CCc4ccc([C@H](C5CC5)[C@H](C)C(=O)O)c(F)c4O3)c(C)n2)c(F)cn1 (single isomer, unassigned) [Example 17]

Source: patent US11225471B2, “Antidiabetic bicyclic compounds” (Merck Sharp & Dohme Corp., priority 2017, dated 2022)
